Laboratory results from patent US20070059369A1, “Subcutaneous delivery system, process for the preparation of the same and use of the same for the treatment of cholinergic deficient disorders” (priority 2003, published 2007).

Experiments:
[1] = aged patients and patients suffering from Alzheimer's disease; cited from earlier work
[2] = tested on: cerebral hypoxia-ischemia rat model; conditions: cited from earlier work
[3] = tested on: acetylcholinesterase (AChE); assay: Inhibition of acetylcholinesterase; format: biochemical; conditions: different species (rat, bovine and human)
[4] = molecular target: butyrylcholinesterase (BuChE) (Homo sapiens, UniProt P06276); assay: Inhibition of butyrylcholinesterase; format: biochemical; conditions: in contrast to AChE
Chain of butyrylcholinesterase (BuChE) (P06276 29-602): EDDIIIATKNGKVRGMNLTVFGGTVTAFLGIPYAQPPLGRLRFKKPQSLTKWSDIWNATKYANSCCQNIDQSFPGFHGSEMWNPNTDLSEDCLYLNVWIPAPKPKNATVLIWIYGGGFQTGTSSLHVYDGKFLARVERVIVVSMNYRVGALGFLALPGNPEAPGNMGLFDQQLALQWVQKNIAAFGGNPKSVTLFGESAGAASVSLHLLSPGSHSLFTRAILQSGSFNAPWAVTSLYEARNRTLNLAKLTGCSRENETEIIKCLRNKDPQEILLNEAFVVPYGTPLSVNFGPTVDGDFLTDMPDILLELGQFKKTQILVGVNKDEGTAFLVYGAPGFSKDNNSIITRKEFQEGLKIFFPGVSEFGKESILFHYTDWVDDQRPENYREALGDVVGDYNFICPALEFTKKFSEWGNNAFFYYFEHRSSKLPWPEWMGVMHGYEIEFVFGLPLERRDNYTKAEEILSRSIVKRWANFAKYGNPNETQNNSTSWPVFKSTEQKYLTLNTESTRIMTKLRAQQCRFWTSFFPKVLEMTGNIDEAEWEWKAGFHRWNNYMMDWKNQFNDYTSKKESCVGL

[5] = molecular target: acetylcholinesterase (Homo sapiens, UniProt P22303); conditions: from EP 0 806 416; cited from earlier work
Chain of acetylcholinesterase (P22303 32-614): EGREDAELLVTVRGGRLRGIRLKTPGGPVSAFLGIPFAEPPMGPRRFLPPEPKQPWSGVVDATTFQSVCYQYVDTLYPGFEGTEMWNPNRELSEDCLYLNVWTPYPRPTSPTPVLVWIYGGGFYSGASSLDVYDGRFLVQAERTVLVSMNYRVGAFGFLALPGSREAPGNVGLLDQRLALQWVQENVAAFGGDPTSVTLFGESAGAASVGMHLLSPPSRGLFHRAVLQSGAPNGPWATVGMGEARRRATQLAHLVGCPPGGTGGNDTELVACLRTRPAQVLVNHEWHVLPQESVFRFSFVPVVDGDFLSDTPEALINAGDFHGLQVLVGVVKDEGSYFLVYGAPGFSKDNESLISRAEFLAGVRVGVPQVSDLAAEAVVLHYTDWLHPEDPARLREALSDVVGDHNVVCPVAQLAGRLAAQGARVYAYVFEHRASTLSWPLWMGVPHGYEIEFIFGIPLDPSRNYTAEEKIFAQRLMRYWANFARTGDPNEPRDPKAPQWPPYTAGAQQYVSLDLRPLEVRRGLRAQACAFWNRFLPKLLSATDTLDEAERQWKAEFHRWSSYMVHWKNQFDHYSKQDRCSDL

C/C=C1\[C@H]2C=C(C)C[C@]1(N)c1ccc(=O)[nH]c1C2 [Huperzine A]
Memory-enhancing effects [1]: memory-enhancing effects | Neuroprotective effect of rescue treatment [2]: beneficial neuroprotective effect

C/C=C1\C2C=C(C)CC1(/N=C/c1cc(Cl)cc(OC)c1O)c1ccc(=O)[nH]c1C2 (centres unmarked) [derivative of formula (III)]
Inhibition of acetylcholinesterase (AChE) [3]: potent and selective inhibitor | Inhibitory activity on butyrylcholinesterase (BuChE) [4]: much weaker inhibitory activity | Selectivity for acetylcholinesterase compared to butyrylcholinesterase [5]: highly selective activity in favour of acetylcholinesterase
